Calls of active or inactive are those of the source.
Columns and labels:
Coagulation factor XII = target: T1, Coagulation factor XII (Homo sapiens, UniProt P00748); assay type: functional;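 further: activated factor XIIa alpha cleaving a fluorogenic AMC peptide substrate; inhibitor potency from loss of enzyme activity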
T1 sequence (P00748 whole entry): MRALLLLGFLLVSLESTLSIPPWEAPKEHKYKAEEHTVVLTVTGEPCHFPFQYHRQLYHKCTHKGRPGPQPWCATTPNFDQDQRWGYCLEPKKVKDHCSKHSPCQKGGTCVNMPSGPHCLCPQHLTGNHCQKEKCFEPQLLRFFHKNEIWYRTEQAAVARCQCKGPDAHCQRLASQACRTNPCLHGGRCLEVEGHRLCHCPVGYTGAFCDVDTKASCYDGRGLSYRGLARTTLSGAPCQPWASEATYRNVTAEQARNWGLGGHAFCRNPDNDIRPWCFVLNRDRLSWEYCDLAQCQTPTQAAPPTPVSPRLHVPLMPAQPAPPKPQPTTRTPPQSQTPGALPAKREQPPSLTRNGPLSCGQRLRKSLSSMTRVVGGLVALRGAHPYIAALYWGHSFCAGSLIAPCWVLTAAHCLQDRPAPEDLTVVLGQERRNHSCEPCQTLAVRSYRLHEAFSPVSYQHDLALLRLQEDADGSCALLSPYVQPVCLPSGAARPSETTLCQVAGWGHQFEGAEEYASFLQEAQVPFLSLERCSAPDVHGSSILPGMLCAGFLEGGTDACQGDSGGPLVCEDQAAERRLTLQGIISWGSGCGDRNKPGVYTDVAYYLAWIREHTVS

[1] = viability loss in CEM21 cells – cell-based, CellTiter-Glo luminescence, cherry-picked, cytotoxicity control for viral fusion inhibitor project, dose response (AID 652042); assay type: functional;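 further: potency for signal decrease meaning cytotoxicity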
[2] = blockers of HIV-1 envelope-mediated cell-cell fusion – cherry-pick, dose response (AID 652057); assay type: functional, cell-based
[3] = off-target signal loss in HeLa-CEM21 co-culture – HeLa F-luc CTL cells, cherry-picked, counter-screen for HIV-1 Env fusion inhibitor project, dose response (AID 652040); assay type: functional, cell-based;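 further: potency for signal decrease marking cytotoxic or nonspecific inhibition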
[4] = blockers of HIV-1 ZM109 envelope-driven cell-cell fusion – HeLa effector, CEM target cells, luciferase, cherry-pick, dose response (AID 652058); assay type: functional, cell-based;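 further: luciferase signal from HIV-1 Env mediated cell-cell fusion of effector and target cells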
[5] = HIV-1 AD8 envelope cell-cell fusion blockers – cherry-pick, dose response (AID 652062); assay type: functional, cell-based;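 further: luciferase signal from cell-cell fusion driven by HIV-1 clade B AD8 Env; potency is for inhibitors of fusion seen as a drop in luminescence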
[6] = decrease of insulin promoter-GFP reporter – imaging, high-content screening, mouse beta cells (AID 1628); assay type: functional; conditions: MIN6
[7] = MIN6 cell viability loss – mouse insulinoma, cytotoxicity control, dose response (AID 2122); assay type: functional;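 further: confirmatory high-throughput counterscreen run to flag cytotoxic compounds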
Streptococcus = test: GAS UMAA2166 growth inhibition – luminescence, BacTiterGlo, counter-screen for streptokinase expression inhibitor project, dose response (AID 1915); assay type: functional, organism-based;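 further: potency for reduction of bacterial viability or growth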
[8] = test system: Streptococcus sp. 'group A'; test: Streptococcus pyogenes SK(-)GAS viability under kanamycin – luminescence, BacTiterGlo, confirmation, counter-screen for streptokinase expression inhibitor project, dose response (AID 1900); assay type: functional, organism-based
Aminopeptidase N = target: T2, Aminopeptidase N (Plasmodium falciparum FcB1/Columbia, UniProt O96935); test: malaria alanyl aminopeptidase activity blockers – biochemical, fluorogenic H-Leu-NHMec substrate, 1536-well (AID 1445); parameters: species or system Plasmodium falciparum 3D7, 3D7
T2 sequence (O96935 whole entry): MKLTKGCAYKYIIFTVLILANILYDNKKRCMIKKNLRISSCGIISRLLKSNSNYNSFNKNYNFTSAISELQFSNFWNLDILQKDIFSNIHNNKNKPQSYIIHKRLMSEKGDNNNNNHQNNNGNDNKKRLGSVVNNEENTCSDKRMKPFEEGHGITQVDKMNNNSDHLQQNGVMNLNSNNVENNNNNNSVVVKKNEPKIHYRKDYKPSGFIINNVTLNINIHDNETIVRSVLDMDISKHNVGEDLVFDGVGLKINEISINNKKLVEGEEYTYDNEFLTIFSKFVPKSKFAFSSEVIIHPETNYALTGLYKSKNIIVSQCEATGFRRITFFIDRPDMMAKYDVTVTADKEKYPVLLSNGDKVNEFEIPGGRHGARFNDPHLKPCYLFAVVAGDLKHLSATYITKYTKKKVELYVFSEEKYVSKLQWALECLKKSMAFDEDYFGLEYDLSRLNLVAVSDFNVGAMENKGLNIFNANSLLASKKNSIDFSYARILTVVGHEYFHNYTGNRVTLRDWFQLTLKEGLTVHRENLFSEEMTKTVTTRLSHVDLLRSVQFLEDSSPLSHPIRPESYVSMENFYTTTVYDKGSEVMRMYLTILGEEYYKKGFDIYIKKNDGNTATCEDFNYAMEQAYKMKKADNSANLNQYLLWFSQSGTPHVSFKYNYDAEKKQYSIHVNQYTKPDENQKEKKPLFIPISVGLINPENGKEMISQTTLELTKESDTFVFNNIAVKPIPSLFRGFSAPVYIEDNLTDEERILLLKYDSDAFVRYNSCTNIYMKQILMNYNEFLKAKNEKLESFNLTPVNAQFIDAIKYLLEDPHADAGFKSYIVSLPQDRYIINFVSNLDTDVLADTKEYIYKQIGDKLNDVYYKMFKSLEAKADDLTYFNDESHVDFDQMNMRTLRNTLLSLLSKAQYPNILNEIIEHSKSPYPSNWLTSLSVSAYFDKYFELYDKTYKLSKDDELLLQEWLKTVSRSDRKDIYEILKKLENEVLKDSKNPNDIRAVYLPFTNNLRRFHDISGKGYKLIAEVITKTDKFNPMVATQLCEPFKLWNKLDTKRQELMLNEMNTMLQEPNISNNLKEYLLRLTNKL

[9] = target: T3, Zinc finger protein mex-5 (Caenorhabditis elegans, UniProt Q9XUB2); test: potency of MEX-5 RNA-binding blockers – biochemical, C. elegans, fluorescence polarization, dose response (AID 1960)
T3 sequence (Q9XUB2 whole entry): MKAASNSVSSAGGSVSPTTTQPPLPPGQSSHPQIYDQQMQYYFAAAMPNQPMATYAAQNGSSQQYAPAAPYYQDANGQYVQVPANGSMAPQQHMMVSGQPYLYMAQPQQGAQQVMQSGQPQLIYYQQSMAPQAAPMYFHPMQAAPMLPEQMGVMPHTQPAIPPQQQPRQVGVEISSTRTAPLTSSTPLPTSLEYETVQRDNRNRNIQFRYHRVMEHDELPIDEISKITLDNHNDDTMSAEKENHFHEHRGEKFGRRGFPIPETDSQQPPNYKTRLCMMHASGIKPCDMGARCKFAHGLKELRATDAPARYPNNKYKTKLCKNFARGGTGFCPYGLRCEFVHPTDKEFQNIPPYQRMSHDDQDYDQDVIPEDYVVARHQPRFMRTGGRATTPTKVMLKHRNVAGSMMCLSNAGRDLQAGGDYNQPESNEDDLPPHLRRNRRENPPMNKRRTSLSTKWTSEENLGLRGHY

[10] = target: T4, RNA-binding protein pos-1 (Caenorhabditis elegans, UniProt G5EF15); test: disruptors of C. elegans POS-1 RNA interaction – biochemical, fluorescence polarization, dose response (AID 1964);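 further: purified POS-1 fused to maltose binding protein made in E. coli; potency of compounds blocking POS-1 binding to fluorescent RNA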
T4 sequence (G5EF15 whole entry): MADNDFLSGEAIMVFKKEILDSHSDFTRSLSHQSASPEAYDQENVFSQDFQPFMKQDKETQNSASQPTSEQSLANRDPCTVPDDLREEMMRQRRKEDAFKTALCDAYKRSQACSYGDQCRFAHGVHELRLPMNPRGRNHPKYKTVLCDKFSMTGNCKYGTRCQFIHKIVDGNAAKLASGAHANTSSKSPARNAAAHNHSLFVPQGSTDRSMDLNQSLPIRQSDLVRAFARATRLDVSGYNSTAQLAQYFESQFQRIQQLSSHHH

[11] = target: T5, Short transient receptor potential channel 4 (Mus musculus, UniProt Q9QUQ5); test: calcium entry via TRPC4 opening agents – cell-based, HEK293 TRPC4/mu-opioid, Fluo-4 calcium, dose response (AID 434937); assay type: functional
T5 sequence (Q9QUQ5 whole entry): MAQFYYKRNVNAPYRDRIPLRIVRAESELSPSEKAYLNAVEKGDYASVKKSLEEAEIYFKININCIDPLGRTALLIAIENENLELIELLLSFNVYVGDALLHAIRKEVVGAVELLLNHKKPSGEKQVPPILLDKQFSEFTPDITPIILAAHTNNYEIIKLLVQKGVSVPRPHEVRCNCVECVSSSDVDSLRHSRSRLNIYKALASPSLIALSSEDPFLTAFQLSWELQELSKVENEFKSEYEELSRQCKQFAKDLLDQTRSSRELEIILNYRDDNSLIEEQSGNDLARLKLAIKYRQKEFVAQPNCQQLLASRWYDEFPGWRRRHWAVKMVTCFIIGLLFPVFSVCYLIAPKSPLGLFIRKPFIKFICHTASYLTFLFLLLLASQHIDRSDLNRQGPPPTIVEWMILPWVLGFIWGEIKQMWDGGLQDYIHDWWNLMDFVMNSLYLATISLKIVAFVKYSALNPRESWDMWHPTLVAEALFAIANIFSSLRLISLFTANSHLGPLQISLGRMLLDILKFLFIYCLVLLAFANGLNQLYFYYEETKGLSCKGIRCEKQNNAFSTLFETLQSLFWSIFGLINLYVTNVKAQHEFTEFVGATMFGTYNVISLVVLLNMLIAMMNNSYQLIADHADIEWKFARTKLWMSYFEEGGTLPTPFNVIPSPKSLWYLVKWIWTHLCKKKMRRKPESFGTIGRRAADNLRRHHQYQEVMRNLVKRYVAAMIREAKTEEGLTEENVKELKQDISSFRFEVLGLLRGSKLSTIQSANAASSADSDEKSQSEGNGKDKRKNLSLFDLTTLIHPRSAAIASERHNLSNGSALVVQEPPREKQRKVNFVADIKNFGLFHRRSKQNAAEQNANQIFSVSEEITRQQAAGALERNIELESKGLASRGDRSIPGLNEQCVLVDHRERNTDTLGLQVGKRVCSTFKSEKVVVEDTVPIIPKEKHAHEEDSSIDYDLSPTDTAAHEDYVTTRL

cells [12] = assay type: functional, cell-based
cells [13] = assay type: functional, cell-based; remark: listed apart in the source
Streptokinase A = target: T6, Streptokinase A (Streptococcus pyogenes serotype M1, UniProt P10520); test: viability-normalized secreted streptokinase activity reduction – plasminogen activation absorbance, OD405, dose response (AID 1914); assay type: functional, Streptococcus pyogenes M1 GAS;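 further: secreted streptokinase activity via plasminogen activation per viability signal from cell pellet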
T6 sequence (P10520 whole entry): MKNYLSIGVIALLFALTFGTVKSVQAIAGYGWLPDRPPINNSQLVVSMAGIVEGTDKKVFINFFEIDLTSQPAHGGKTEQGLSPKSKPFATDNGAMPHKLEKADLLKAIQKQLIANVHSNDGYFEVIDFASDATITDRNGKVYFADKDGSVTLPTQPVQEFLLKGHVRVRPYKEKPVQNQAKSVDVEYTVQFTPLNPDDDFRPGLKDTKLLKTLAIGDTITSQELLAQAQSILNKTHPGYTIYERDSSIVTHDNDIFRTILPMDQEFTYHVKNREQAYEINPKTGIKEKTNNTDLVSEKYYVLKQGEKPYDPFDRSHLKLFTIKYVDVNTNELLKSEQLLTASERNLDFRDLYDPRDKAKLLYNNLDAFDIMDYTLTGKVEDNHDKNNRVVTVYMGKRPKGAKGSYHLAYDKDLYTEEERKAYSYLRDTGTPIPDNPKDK

Compound: COC(=O)c1sccc1NC(=O)/C=C/c1c(Cl)cccc1Cl
- IC50 (Coagulation factor XII): > 50 µM (inactive)

Compound: Cc1ccc(S(=O)(=O)N(CC(=O)NCCC2=CCCCC2)Cc2ccccc2)cc1
- AC50 [1]: 41.1 µM (active)
- AC50 [2]: 5.01 µM (active)
- AC50 [3]: 7.25 µM (active)
- AC50 [4]: 10.7 µM (active)
- AC50 [5]: 10.2 µM (active)
- IC50 (Coagulation factor XII): > 50 µM (inactive)

Compound: Cc1sc2nc(-c3ccccn3)nc(O)c2c1-c1ccccc1
- IC50 [6]: 4.11 µM (active)
- IC50 [7]: 5.43 µM (active)
- EC50 (Streptococcus): 23.9 µM (active)
- EC50 [8]: 1.25 µM (active)

Compound: O=C(O)c1cc(-c2ccc(/C=N/Nc3ccc([N+](=O)[O-])cn3)o2)ccc1Cl
- IC50 (Aminopeptidase N): 12.7 µM (active)
- EC50 [9]: 6.29 µM (active)
- EC50 [10]: 31 µM (active)

Compound: CN(C)c1ccc(C(=O)NN2C(=O)c3ccccc3C2=O)cc1
- IC50 (Coagulation factor XII): > 50 µM (inactive)

Compound: CN(C)C(CNC(=O)c1cccc(S(=O)(=O)N(C)C)c1)c1ccccc1 (stereo unspecified)
- EC50 [11]: 0.299 µM (active)

Compound: Cc1cc(O)nc(N/N=C/c2cc(C)n(CC(F)(F)F)c2C)n1
- IC50 [6]: 2 µM (active)
- IC50 [7]: 11.2 µM (inactive)

Compound: Nc1nc2nc(-c3cccs3)cc(C(F)(F)F)n2n1
- IC50 (Aminopeptidase N): 61.4 µM (active)
- EC50 (cells [12]): > 350 µM (not active)
- EC50 (cells [13]): > 350 µM (not active)

Compound: O=[N+]([O-])c1ccc(N2CCNCC2)c2ncccc12
- EC50 [11]: 0.0373 µM (active)

Compound: COc1cc(OC)cc(C(=O)NC(=S)NNC(=O)Cc2cccs2)c1
- EC50 (Streptokinase A): > 150 µM (not active)
- EC50 (Streptococcus): 11.6 µM (active)
- EC50 [8]: 0.814 µM (active)
- EC50 [11]: 10.6 µM (active)

Source: ChEMBL document CHEMBL1201862, “PubChem BioAssay data set” (2004)
